# Structures can show the parent of a compound that is named as a salt.
# Tested on: grape (species: "Italia")
# Assay: Fruit enlargement test, grape, dipping treatment of bunches
# Assay type: in vivo
# Details: for Mean bunch weight: 7 bunches; for One berry weight: bunch weight/total berry number
# Procedure: Using grape (species: “Italia”) as a subject, a fruit enlargement test was done following the experimental summary described below. The test was carried out with 7 replication. Fifteen days after the full bloom, grape bunches were dipped in a chemical solution diluted to a predetermined concentration. The treated grape bunches were dried in air and grown as they were, until the bunches were harvested 43 days after the treatment to examine the bunch weight and the total number of grape berries. Five berries were randomly selected from each grape bunch of 5 replication among the test lots, for measuring the sugar level with a hand-held refracto-sugar meter manufactured by ATAGO CO., LTD (Type number: Nl). Additionally, a drug substance of gibberellin in powder (98% purity) was used as the gibberellin, while as the prohexadione calcium salt, a 27.5% formulation (the trade name: Viviful) was used, and as the trinexapac ethyl, a 25% formulation thereof (the trade name: Moddus) was used.
# Material: Grape bunch “Italia” Fully bloomed on Sep. 21, 2006; starting the treatments on Oct. 6, 2006; harvested on Dec. 18, 2006: 7 bunches per one treatment lot.
# C: Cont (control lot) G: dipping treatment in gibberellin (24.5 ppm) PCA: dipping treatment in prohexadione calcium salt (20 ppm, 100 ppm) GPCA: dipping treatment in gibberellin and prohexadione calcium salt (24.5 and 20 ppm, respectively or 24.5 ppm and 100 ppm, respectively) TR: dipping treatment in trinexapac ethyl (20 ppm, 100 ppm) G+TR: dipping treatment in gibberellin and trinexapac ethyl (24.5 ppm and 20 ppm, respectively or 24.5 ppm and 100 ppm, respectively).
# Herein, statistical analysis was done by the Tukey's HSD test (p=0.05). Significant difference is observed between different alphabets.
SMILES,Mean bunch weight (20 ppm),One berry weight (20 ppm),Mean bunch weight (100 ppm),One berry weight (100 ppm)
"CCOC(=O)C1CC(=O)C(=C(O)C2CC2)C(=O)C1 (centres unmarked) [TR, trinexapac ethyl]",487.1 g,7.9 g,474.3 g,6.7 g
"CCC(=O)C1=C(O)CC(C(=O)O)CC1=O (centres unmarked) [PCA, prohexadione calcium salt]",452.9 g,7.3 g,390.0 g,6.4 g

# From patent US20080280765A1, “Method of Promoting Enlargement Growth of Agricultural and Horticultural Crops” (priority 2006, published 2008)
